# Data reported in BindingDB's records for doi:10.1021/ml300405d (Therachem Research Medilab (India), 2013).
# Molecular target: Tyrosine-protein kinase SYK (Homo sapiens) (UniProt P43405)
# Assay: Inhibition of human Gst-tagged Syk expressed in sf9 cells
row,IC50 [nM],Structure (SMILES)
1,6150,COc1ccc(Nc2nc(N3CCC(C(=O)Nc4ccc(C(=O)O)cc4)C3)nc3scnc23)nc1OC (stereo not drawn)
2,71,COc1ccc(Nc2nc(N3CCCC(C(=O)Nc4ccc(C(=O)O)c(O)c4)C3)nc3scnc23)cc1OC (stereo not drawn)
3,71,CNC(=O)c1ccc(NC(=O)c2cccc(-c3nc(Nc4ccc(OC)c(OC)c4)c4ncsc4n3)c2)cc1
